{"source": "paper PMC11367099", "about": "(Heliyon, 2024)", "experiment_in_all_cases": "Fluorescein-AMP", "assay_type_in_all_cases": "biochemical", "key": {"PDE3A": {"target": "PDE3A (Homo sapiens, UniProt Q14432)", "sequence (Q14432 whole entry)": "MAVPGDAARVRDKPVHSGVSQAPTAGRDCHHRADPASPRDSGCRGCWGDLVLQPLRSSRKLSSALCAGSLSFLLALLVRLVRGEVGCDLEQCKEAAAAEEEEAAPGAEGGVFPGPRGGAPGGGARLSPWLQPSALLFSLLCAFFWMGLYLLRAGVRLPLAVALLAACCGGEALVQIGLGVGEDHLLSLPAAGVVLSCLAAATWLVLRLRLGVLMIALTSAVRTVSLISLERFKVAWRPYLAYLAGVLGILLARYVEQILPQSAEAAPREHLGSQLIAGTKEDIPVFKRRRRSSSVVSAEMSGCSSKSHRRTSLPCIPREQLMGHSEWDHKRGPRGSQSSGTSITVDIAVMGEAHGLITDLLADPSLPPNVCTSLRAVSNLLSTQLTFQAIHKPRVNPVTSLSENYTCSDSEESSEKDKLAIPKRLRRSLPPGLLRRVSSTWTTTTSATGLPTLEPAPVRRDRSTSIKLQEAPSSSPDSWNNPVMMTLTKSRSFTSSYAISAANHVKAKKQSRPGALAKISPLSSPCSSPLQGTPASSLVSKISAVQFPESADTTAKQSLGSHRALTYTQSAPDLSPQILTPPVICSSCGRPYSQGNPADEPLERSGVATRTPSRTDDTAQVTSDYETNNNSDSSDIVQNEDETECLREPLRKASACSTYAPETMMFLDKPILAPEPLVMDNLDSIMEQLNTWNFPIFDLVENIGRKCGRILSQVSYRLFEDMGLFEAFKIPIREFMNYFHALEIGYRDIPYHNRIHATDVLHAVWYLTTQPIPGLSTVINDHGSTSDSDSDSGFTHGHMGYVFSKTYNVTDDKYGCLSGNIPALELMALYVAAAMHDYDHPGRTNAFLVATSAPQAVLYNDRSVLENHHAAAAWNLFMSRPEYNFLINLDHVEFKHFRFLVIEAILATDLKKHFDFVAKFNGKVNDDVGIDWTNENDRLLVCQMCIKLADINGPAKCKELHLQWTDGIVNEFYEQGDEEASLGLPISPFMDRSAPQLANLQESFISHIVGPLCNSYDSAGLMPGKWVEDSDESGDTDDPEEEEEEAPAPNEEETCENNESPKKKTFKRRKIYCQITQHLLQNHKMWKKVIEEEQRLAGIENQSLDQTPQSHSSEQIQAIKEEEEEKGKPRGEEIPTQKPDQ"}, "PDE10A2": {"target": "PDE10A2 (Homo sapiens, UniProt Q9Y233)", "sequence (Q9Y233 267-1055)": "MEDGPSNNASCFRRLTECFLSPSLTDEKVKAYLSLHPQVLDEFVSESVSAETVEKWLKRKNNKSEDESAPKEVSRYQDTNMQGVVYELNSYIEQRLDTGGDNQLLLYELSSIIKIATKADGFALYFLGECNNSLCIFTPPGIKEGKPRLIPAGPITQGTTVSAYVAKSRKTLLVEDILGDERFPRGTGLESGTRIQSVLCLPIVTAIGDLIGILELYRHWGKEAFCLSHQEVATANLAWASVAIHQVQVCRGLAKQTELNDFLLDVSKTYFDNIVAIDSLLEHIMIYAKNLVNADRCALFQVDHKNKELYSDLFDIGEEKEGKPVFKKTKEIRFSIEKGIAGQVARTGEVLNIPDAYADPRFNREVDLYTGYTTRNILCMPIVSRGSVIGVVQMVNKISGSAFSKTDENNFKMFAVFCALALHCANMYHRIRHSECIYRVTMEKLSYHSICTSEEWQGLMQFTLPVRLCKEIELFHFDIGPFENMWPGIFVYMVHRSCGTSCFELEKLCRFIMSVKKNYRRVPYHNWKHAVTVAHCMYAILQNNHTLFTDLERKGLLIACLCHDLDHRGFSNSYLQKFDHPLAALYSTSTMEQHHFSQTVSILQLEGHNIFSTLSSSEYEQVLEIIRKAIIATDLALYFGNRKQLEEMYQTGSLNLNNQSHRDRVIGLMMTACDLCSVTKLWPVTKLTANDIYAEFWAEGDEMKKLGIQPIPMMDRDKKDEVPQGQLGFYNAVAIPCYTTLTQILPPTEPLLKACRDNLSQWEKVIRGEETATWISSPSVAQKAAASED"}, "PDE5A": {"target": "PDE5A (Homo sapiens, UniProt O76074)"}, "PDE8A1": {"target": "PDE8A1 (Homo sapiens, UniProt O60658)", "sequence (O60658 whole entry)": "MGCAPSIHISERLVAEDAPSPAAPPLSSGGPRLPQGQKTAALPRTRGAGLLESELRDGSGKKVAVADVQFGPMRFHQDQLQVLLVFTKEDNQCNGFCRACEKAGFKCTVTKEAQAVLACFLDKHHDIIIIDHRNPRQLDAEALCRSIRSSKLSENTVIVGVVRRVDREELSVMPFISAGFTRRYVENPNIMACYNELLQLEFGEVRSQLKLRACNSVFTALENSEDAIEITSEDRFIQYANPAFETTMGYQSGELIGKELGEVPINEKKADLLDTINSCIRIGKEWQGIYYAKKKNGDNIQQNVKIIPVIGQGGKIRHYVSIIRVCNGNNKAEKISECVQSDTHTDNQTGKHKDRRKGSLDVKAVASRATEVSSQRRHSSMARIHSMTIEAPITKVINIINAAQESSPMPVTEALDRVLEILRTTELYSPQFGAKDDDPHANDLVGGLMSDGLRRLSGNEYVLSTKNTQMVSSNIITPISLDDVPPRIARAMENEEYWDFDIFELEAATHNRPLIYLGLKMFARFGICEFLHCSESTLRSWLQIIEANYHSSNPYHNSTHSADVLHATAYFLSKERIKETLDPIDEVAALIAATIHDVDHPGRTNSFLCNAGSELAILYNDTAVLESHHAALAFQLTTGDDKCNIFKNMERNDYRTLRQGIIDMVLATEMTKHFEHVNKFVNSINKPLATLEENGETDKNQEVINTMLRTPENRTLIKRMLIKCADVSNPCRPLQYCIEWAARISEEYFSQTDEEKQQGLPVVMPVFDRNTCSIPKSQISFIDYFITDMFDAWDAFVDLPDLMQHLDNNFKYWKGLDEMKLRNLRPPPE"}}, "data": [{"smiles": "COc1cc(-c2cc(=O)c3c(O)c(OC)c(O)c(OC)c3o2)ccc1O", "note": "[Sudachitin]", "values": [{"measurement": "IC50", "setting": "PDE3A", "value": 5.19, "unit": "µM"}, {"measurement": "IC50", "setting": "PDE10A2", "value": 9.99, "unit": "µM"}, {"measurement": "IC50", "setting": "PDE5A", "value": 6.54, "unit": "µM"}, {"measurement": "IC50", "setting": "PDE8A1", "value": 26.3, "unit": "µM"}]}]}
